Results taken from patent US5264430A, “2-spirocyclopropyl cephalosporin sulfone derivatives” (SynPhar Laboratories, Inc., priority 1991, dated 1993).

Legend:
[1] = target: T1, cathepsin G (Homo sapiens, UniProt P08311); assay: Selectivity against various proteases: cathepsin G (CTG); type: biochemical; conditions: cathepsin G 50 nM, human white blood cells, pH 7.5, 30° C., 10 minute preincubation
T1 construct: Purified Cathepsin G from human white blood cells; from tissue; host or cells: human white blood cells
T1 sequence (P08311 21-244 limits assumed): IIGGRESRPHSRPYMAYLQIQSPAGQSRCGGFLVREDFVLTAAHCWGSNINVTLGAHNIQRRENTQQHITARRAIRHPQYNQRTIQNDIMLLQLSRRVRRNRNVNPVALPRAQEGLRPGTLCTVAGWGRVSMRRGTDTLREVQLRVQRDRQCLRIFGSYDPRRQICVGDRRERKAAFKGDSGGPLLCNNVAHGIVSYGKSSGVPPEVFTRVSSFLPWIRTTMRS
Protocol: Reaction mixture: […] 500 mM NaCl […] 2.0 mM Substrate Except for Cathepsin D, the enzyme activities were determined by monitoring the increase in absorbance at 410 nm caused by the hydrolysis of chromogenic substrates. The activity of Cathepsin D was determined by monitoring the absorbance of 5% trichloroacetic acid-soluble material at 280 nm. Inhibition of enzymes by the compounds described were determined after a 10 minute preincubation with enzymes in reaction mixtures minus substrate. Reactions were initiated by the addition of substrates. The concentration used for assays were porcine pancreatic elastase at 240 nM and human Cathepsin G at 50 nM. Cathepsin D was used at the concentration that produced approximately 0.15 O.D. increase per 20 min at 280 nm under the standard conditions. All other proteases were assayed at the concentrations that produced approximately 0.1 O.D. change per minute at 410 nm under the standard conditions.

[2] = target: T2, human leukocyte elastase (HLE) (Homo sapiens, UniProt P08246); assay: Enzyme assay for inhibition of HLE (Table I, activity against ILE); type: biochemical; conditions: HLE 10 nM, 10 minute preincubation, pH 7.6, 30° C.
T2 construct: Purified elastase from human white blood cells; from tissue; host or cells: human white blood cells
T2 sequence (P08246 30-247 limits assumed): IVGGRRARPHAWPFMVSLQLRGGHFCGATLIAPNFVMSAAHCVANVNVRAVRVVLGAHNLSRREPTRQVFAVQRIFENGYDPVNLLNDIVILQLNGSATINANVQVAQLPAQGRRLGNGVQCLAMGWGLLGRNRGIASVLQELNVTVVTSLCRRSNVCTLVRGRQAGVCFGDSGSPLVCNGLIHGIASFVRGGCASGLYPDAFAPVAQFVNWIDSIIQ
Protocol: Enzyme Assay for Inhibition of HLE
Enzyme: Purified elastase from human white blood cells.
MeO-succinyl-L-alanyl-L-alanyl-L-propyl-L-valine-p-nitroanilide (NA)
10 mM phosphate buffer (pH 7.6)
10% dimethylsulfoxide (DMSO)
The enzyme activity was determined by monitoring the increase in absorbance at […] caused by the hydrolysis of chromogenic substrates. Inhibition of enzyme by the compounds described were determined after a 10 minute preincubation with the enzyme in reaction mixture minus substrate. Reaction was initiated by the addition of substrate. The concentration of human leukocyte elastase used for assay was at 10 nM.
HLE, CTG, PPE, and CTD were tested at 30° C. and the others were […]

- IC50 [1]: 16.2 µM
- IC50 [2]: 0.00336 µM
Compound: CC1=C(C(=O)OC(c2ccccc2)c2ccccc2)N2C(=O)[C@H](Br)[C@H]2S(=O)(=O)C12CC2(c1ccccc1)c1ccccc1 (single isomer, unassigned) [Example 2, benzhydryl 7α-bromo-2-spiro(2', 2'-diphenyl) cyclopropyl-3-methyl-3-cephem-4-carboxylate-1,1-dioxide]
